Measurements reported in ChEMBL document CHEMBL1287644, “The novel benzopyran class of selective cyclooxygenase-2 inhibitors. Part III: the three microdose candidates” (Bioorg Med Chem Lett, 2010).

Assays:
[1] = molecular target: Prostaglandin G/H synthase 1 (Homo sapiens, UniProt P23219); experiment: Inhibition of human COX-1
Homo sapiens = organism: Homo sapiens; experiment: Selectivity ratio of IC50 for human COX1 to IC50 for human COX2
Rattus norvegicus [2] = experiment: Antiinflammatory activity in rat air pouch model assessed as inhibition of carrageenan-induced PGE2 production administered 1 hr before carrageenan challenge; format: functional; details: for ED50: Rattus norvegicus
Rattus norvegicus [3] = experiment: Antiinflammatory activity in rat air pouch model assessed as inhibition of carrageenan-induced PGE2 production administered 1 hr after carrageenan challenge
[4] = Half life in cynomolgus monkey; format: ADME, organism-based, Macaca fascicularis; details: in vivo
[5] = Half life in dog; format: ADME, organism-based, Canis lupus familiaris; details: in vivo
[6] = Half life in human at 10 ug, po; format: ADME, organism-based; details: in vivo
Rattus norvegicus [7] = experiment: Antiinflammatory activity in rat assessed as reduction of carrageenan-induced paw edema; format: functional
Rattus norvegicus [8] = organism: Rattus norvegicus; experiment: Analgesic activity against carrageenan-induced thermal hyperalgesia in rat; format: functional
[9] = Half life in rat; format: ADME, organism-based; details: in vivo
Rattus norvegicus [10] = organism: Rattus norvegicus; experiment: Antiarthritic activity in rat assessed as reduction in adjuvant-induced arthritic pain; format: functional

Chain of Prostaglandin G/H synthase 1 (P23219 whole entry): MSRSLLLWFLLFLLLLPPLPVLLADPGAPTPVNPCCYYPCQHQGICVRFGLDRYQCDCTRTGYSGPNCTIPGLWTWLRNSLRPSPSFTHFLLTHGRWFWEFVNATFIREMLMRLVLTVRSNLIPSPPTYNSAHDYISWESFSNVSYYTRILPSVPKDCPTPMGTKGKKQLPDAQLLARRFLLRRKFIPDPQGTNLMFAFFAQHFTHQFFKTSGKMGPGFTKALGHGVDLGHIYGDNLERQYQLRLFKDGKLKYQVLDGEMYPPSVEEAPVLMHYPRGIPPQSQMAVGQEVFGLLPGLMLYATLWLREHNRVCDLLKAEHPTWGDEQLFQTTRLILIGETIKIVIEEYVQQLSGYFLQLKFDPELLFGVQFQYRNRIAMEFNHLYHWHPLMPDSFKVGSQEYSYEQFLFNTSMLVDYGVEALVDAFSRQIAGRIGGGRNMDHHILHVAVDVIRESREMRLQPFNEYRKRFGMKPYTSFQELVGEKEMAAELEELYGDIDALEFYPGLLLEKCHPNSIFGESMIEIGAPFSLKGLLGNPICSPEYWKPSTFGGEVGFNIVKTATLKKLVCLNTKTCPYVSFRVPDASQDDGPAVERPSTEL

IC50 [1] [µM] | Ratio IC50 (Homo sapiens) | Compound | other results
7 | 163 | CCCc1cc(OC(F)(F)F)cc2c1OC(C(F)(F)F)C(C(=O)O)=C2 (stereo not given) | –
224 | 896 | Cc1ccc2c(c1)C=C(C(=O)O)C(C(F)(F)F)O2 (stereo not given) | inhibition (INH) (Rattus norvegicus [2]): 13%
0.12 | 0.36 | CCc1ccc2c(c1)C=C(C(=O)O)C(C(F)(F)F)O2 (stereo not given) | inhibition (INH) (Rattus norvegicus [3]): 90%
– | 91 | O=C(O)C1=Cc2cc(Cl)ccc2OC1C(F)(F)F (stereo not given) | –
100 | – | Cc1cc(C)c2c(c1)C=C(C(=O)O)[C@@H](C(F)(F)F)O2 | half-life [4]: 28 h; half-life [5]: 19 h; half-life [6]: 57 h; inhibition (INH) (Rattus norvegicus [2]): 80%; ED50 (Rattus norvegicus [2]): 2 mg/kg; ED50 (Rattus norvegicus [7]): 8.6 mg/kg; ED50 (Rattus norvegicus [8]): 20.7 mg/kg; half-life [9]: 8.7 h; ED50 (Rattus norvegicus [10]): 10 mg/kg
– | – | Cc1c(Cl)cc2c(c1C)O[C@H](C(F)(F)F)C(C(=O)O)=C2 | inhibition (INH) (Rattus norvegicus [3]): 60%
0.5 | – | CCc1cc(OC(F)(F)F)cc2c1OC(C(F)(F)F)C(C(=O)O)=C2 (stereo not given) | –
169 | 704 | Cc1cc(C)c2c(c1)C=C(C(=O)O)C(C(F)(F)F)O2 (stereo not given) | –
1.08 | 5.7 | Cc1cc(Cl)c2c(c1)C=C(C(=O)O)C(C(F)(F)F)O2 (stereo not given) | –
0.47 | – | Cc1cc(Cl)cc2c1OC(C(F)(F)F)C(C(=O)O)=C2 (stereo not given) | –
0.14 | 5.4 | C#Cc1cc(Cl)c2c(c1)C=C(C(=O)O)C(C(F)(F)F)O2 (stereo not given) | –
17 | 773 | O=C(O)C1=Cc2cc(OC(F)(F)F)ccc2OC1C(F)(F)F (stereo not given) [OCAROCOXIB] | –
– | – | Cc1cc(OC(F)(F)F)cc2c1O[C@H](C(F)(F)F)C(C(=O)O)=C2 | inhibition (INH) (Rattus norvegicus [2]): >68%
0.32 | 0.5 | COc1cc(OC(F)(F)F)cc2c1OC(C(F)(F)F)C(C(=O)O)=C2 (stereo not given) | –
30.8 | – | Cc1cc2c(c(C)c1Cl)C=C(C(=O)O)[C@H](C(F)(F)F)O2 | –
0.14 | 0.5 | CCc1cc(C)c2c(c1)C=C(C(=O)O)C(C(F)(F)F)O2 (stereo not given) | –
4.39 | – | O=C(O)C1=Cc2cc(C(F)(F)F)ccc2OC1C(F)(F)F (stereo not given) | –
– | 1 | COc1ccc2c(c1)C=C(C(=O)O)C(C(F)(F)F)O2 (stereo not given) | –
2.58 | 12 | Cc1cc(Cl)c(C)c2c1OC(C(F)(F)F)C(C(=O)O)=C2 (stereo not given) | –
25.6 | 107 | COc1cc(Cl)c2c(c1)C=C(C(=O)O)C(C(F)(F)F)O2 (stereo not given) | –
29.8 | 229 | Cc1cc2c(c(C)c1Cl)C=C(C(=O)O)C(C(F)(F)F)O2 (stereo not given) | –
– | 2.9 | COc1cc(C)cc2c1OC(C(F)(F)F)C(C(=O)O)=C2 (stereo not given) | –
2.28 | – | Cc1cc2c(c(C)c1Cl)C=C(C(=O)O)[C@@H](C(F)(F)F)O2 | half-life [4]: 5.4 h; half-life [5]: 23 h; half-life [6]: 11 h; ED50 (Rattus norvegicus [2]): 0.41 mg/kg; ED50 (Rattus norvegicus [7]): 8 mg/kg; ED50 (Rattus norvegicus [8]): 7.6 mg/kg; half-life [9]: 4.7 h; ED50 (Rattus norvegicus [10]): 3.2 mg/kg
100 | – | CCCc1cc(OC(F)(F)F)cc2c1O[C@@H](C(F)(F)F)C(C(=O)O)=C2 | –
94.2 | 1290 | C#Cc1ccc2c(c1)C=C(C(=O)O)C(C(F)(F)F)O2 (stereo not given) | inhibition (INH) (Rattus norvegicus [2]): 60%
115 | 1040 | N#Cc1ccc2c(c1)C=C(C(=O)O)C(C(F)(F)F)O2 (stereo not given) | –
71.7 | – | CCCc1cc(OC(F)(F)F)cc2c1O[C@H](C(F)(F)F)C(C(=O)O)=C2 | inhibition (INH) (Rattus norvegicus [2]): >68%
19.9 | – | CCc1cc(OC(F)(F)F)cc2c1O[C@H](C(F)(F)F)C(C(=O)O)=C2 | half-life [4]: 12 h; half-life [5]: 7.7 h; half-life [6]: 13 h; inhibition (INH) (Rattus norvegicus [2]): >72%; ED50 (Rattus norvegicus [2]): 1.87 mg/kg; ED50 (Rattus norvegicus [7]): 3.8 mg/kg; ED50 (Rattus norvegicus [8]): 5.6 mg/kg; half-life [9]: 2 h; ED50 (Rattus norvegicus [10]): 0.8 mg/kg
100 | – | CCc1cc(OC(F)(F)F)cc2c1O[C@@H](C(F)(F)F)C(C(=O)O)=C2 | –
500 | 685 | O=Cc1ccc2c(c1)C=C(C(=O)O)C(C(F)(F)F)O2 (stereo not given) | –
